Laboratory results reported in patent publication US20180207228A1, “PEPTIDE COMBINATIONS AND USES THEREOF FOR TREATING GRASS ALLERGY” (ALK-Abelló A/S, priority 2015, published 2018).
Where no end group is shown, it is not given here.

Assays:
[1] = test system: allergen specific T cells; assay: T cell proliferation assay (72 h) on donor derived T cell lines (TCL02/TCL03); format: cell-based, human; details: for T cell response in % of the donors tested: single peptide; for Proliferation % donor coverage (TCL-02 DK1): T cell lines TCL-02 DK1, 30 donors, hit criteria SI>=2, CPM>=1000; for Proliferation strength (TCL-02 DK1): T cell lines TCL-02 DK1, strength of response (average relative magnitude)
Method in brief: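 Overlapping 20-mer and selected 15-mer grass allergen peptides were screened for proliferation using TCL02 (day 24) or TCL03 (day 34) lines. Lines came from grass-allergic donors' CD8-depleted PBMCs, primed with natural allergen mix and expanded with irradiated autologous or allogeneic APCs, PHA-P 0.5 μg/ml and rIL-2.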

[2] = Peptide solubility by visual inspection; format: physicochemical; for Visual inspection after centrifugation pH 7: key: ok: clear solution; +: very small precipitation only visible with a magnifier; ++: precipitation/turbid solution; +++: more precipitation/turbid solution
Protocol: Water (pH 3-5) • 2. 250 mM D-Mannitol and 25 mM sodium acetate, pH 4.5 • 3. 250 mM D-Mannitol and 25 mM sodium phosphate, pH 7.0 • 4. […] Water (pH 3-5) • 2. 250 mM D-Mannitol and 25 mM sodium acetate, pH 4.5 • 3. 250 mM D-Mannitol and 25 mM sodium phosphate, pH 7.0 • 4. […] A subset of the peptides was selected as candidate peptides for a final peptide mixture. […] During the solubility studies the peptide-containing solutions were inspected visually before and after filtration for turbidity, and presence of particles/aggregates. In addition, presence of turbidity/particles/aggregates was also detected by optical density (OD) or absorbance of filtered material, but might also be detected by size-exclusion chromatography. Furthermore, Sub-visual particles may also be detected by dynamic light scattering (DLS) analysis on filtered and non-filtered peptide containing solutions. Samples were furthermore subjected to centrifugation to allow for the possible visual inspection of pelleted material.

[3] = 3 mg/mL, acetate salt, non-filtered, 250 mM D-Mannitol and 25 mM sodium phosphate, pH 7.0

| Substance | solubility, 1st round of solubility screening [2] | Visual inspection after 60 min pH 7 [2, 3] | Visual inspection after 60 min pH 4.5 ([2]; 3 mg/mL, acetate salt, non-filtered, 250 mM D-Mannitol and 25 mM sodium acetate, pH 4.5) | Visual inspection after centrifugation pH 4.5 ([2]; 3 mg/mL, acetate salt, non-filtered, 250 mM D-Mannitol and 25 mM sodium acetate, pH 4.5, after centrifugation) | Visual inspection after centrifugation pH 7 ([2]; 3 mg/mL, acetate salt, non-filtered, 250 mM D-Mannitol and 25 mM sodium phosphate, pH 7.0, after centrifugation) | T cell response in % of the donors tested [1] [%] | solubility in aqueous solutions [2] | Proliferation % donor coverage (TCL-02 DK1) [1] [%] | Proliferation strength (TCL-02 DK1) [1] |
| --- | --- | --- | --- | --- | --- | --- | --- | --- | --- |
| PANDKFTVFEAAFNNAIKAS-OH [compound 70] | soluble | – | – | – | – | – | – | 46.67 | 8.10 |
| AYESYKFIPALEAAVKQAYA-OH [peptide 285] | – | – | – | – | – | ~50 | surprisingly good solubility in aqueous solutions | – | – |
| VATLSEALRIIAGTLEVHAV-OH [compound 67] | – | – | – | – | – | – | – | 43.33 | 7.30 |
| STGGAYESYKFIPALEAAVK-OH [compound 71] | soluble | tread + | – | – | – | ~50 | surprisingly good solubility in aqueous solutions | 46.67 | 8.20 |

More lines, main results first:

| solubility, 1st round of solubility screening [2] | Visual inspection after 60 min pH 7 [2, 3] | Visual inspection after 60 min pH 4.5 ([2]; 3 mg/mL, acetate salt, non-filtered, 250 mM D-Mannitol and 25 mM sodium acetate, pH 4.5) | Visual inspection after centrifugation pH 4.5 ([2]; 3 mg/mL, acetate salt, non-filtered, 250 mM D-Mannitol and 25 mM sodium acetate, pH 4.5, after centrifugation) | Visual inspection after centrifugation pH 7 ([2]; 3 mg/mL, acetate salt, non-filtered, 250 mM D-Mannitol and 25 mM sodium phosphate, pH 7.0, after centrifugation) | Substance | T cell response in % of the donors tested [1] [%] | solubility in aqueous solutions [2] | Proliferation % donor coverage (TCL-02 DK1) [1] [%] | Proliferation strength (TCL-02 DK1) [1] |
| --- | --- | --- | --- | --- | --- | --- | --- | --- | --- |
| soluble | – | – | – | – | TDDNEEPIAPYHFDLSGHAF-OH [peptide 204] | ~40 | surprisingly good solubility in aqueous solutions | – | – |
| soluble | particles + | + particles, | ++ | +++ | WGAIWRIDTPDKLTGPFTVR-OH [peptide 211] | ~40 | surprisingly good solubility in aqueous solutions | – | – |
| soluble | – | – | – | – | DKYRTFVATFGAASNKAFAE-OH [peptide 231] | ~40 | – | – | – |
